{"source": "PubChem BioAssay AID1259411", "about": "(Chemical Carcinogenesis Research Information System (CCRIS), 2018)", "tested_on": "rodent carcinogenicity bioassays, tumor incidence", "experiment": "CCRIS carcinogenicity studies", "outline": "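NCI-built, expert-reviewed records of carcinogenicity and related test outcomes (mutagenicity, tumor promotion/inhibition) compiled from published and report sources, historical span 1985-2011, not updated.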", "note": "Active and inactive are the calls of the source. How the calls were made is not given here."}
{"smiles": "Oc1ccc2c(c1)OCO2", "values": [{"measurement": "carcinogen call", "setting": "Species: MOUSE, Strain/Sex: B6C3F1/FEMALE, Route: ORAL, Dose: 0, 2% IN DIET FOR 96 WK (STUDY DURATION: 96 WK), Tumor Site: Type of Lesion: FORESTOMACH: SQUAMOUS CELL CARCINOMA", "value": "active; positive"}, {"measurement": "carcinogen call", "setting": "Species: MOUSE, Strain/Sex: B6C3F1/FEMALE, Route: ORAL, Dose: 0, 2% IN POWDERED BASAL DIET FOR 96 WK (STUDY DURATION: 96 WK), Tumor Site: Type of Lesion: FORESTOMACH: SQUAMOUS CELL CARCINOMA", "value": "active; positive"}, {"measurement": "carcinogen call", "setting": "Species: MOUSE, Strain/Sex: B6C3F1/MALE, Route: ORAL, Dose: 0, 2% IN DIET FOR 96 WK (STUDY DURATION: 96 WK), Tumor Site: Type of Lesion: FORESTOMACH: SQUAMOUS CELL CARCINOMA", "value": "active; positive"}, {"measurement": "carcinogen call", "setting": "Species: MOUSE, Strain/Sex: B6C3F1/MALE, Route: ORAL, Dose: 0, 2% IN POWDERED BASAL DIET FOR 96 WK (STUDY DURATION: 96 WK), Tumor Site: Type of Lesion: FORESTOMACH: SQUAMOUS CELL CARCINOMA", "value": "active; positive"}, {"measurement": "carcinogen call", "setting": "Species: RAT, Strain/Sex: F344/FEMALE, Route: ORAL, Dose: 0, 2% IN DIET FOR 104 WK (STUDY DURATION: 104 WK)", "value": "inactive; negative"}, {"measurement": "carcinogen call", "setting": "Species: RAT, Strain/Sex: F344/FEMALE, Route: ORAL, Dose: 0, 2% IN DIET FOR 104 WK (STUDY DURATION: 104 WK), Tumor Site: Type of Lesion: FORESTOMACH: PAPILLOMA", "value": "active; positive"}, {"measurement": "carcinogen call", "setting": "Species: RAT, Strain/Sex: F344/FEMALE, Route: ORAL, Dose: 0, 2% IN POWDERED BASAL DIET FOR 104 WK (STUDY DURATION: 104 WK), Tumor Site: Type of Lesion: FORESTOMACH: PAPILLOMA", "value": "active; positive"}, {"measurement": "carcinogen call", "setting": "Species: RAT, Strain/Sex: F344/MALE, Route: ORAL, Dose: 0, 0.4% IN DIET FOR DURATION OF STUDY (STUDY DURATION: 104 WK)", "value": "inactive; negative"}, {"measurement": "carcinogen call", "setting": "Species: RAT, Strain/Sex: F344/MALE, Route: ORAL, Dose: 0, 2% IN DIET FOR 104 WK (STUDY DURATION: 104 WK), Tumor Site: Type of Lesion: FORESTOMACH: PAPILLOMA, SQUAMOUS CELL CARCINOMA", "value": "active; positive"}, {"measurement": "carcinogen call", "setting": "Species: RAT, Strain/Sex: F344/MALE, Route: ORAL, Dose: 0, 2% IN DIET FOR 104 WK (STUDY DURATION: 104 WK), Tumor Site: Type of Lesion: FORESTOMACH: SQUAMOUS CELL CARCINOMA", "value": "active; positive"}, {"measurement": "carcinogen call", "setting": "Species: RAT, Strain/Sex: F344/MALE, Route: ORAL, Dose: 0, 2% IN POWDERED BASAL DIET FOR 104 WK (STUDY DURATION: 104 WK), Tumor Site: Type of Lesion: FORESTOMACH: PAPILLOMA, SQUAMOUS CELL CARCINOMA", "value": "active; positive"}]}
{"smiles": "O=[N+]([O-])c1cc([N+](=O)[O-])c2ccc(S(=O)(=O)O)cc2c1O", "values": [{"measurement": "carcinogen call", "setting": "Species: MOUSE, Strain/Sex: SWISS-WEBSTER/FEMALE, Route: DERMAL, Dose: 0, 1% IN 0.1 ML DISTILLED WATER 1/WK FOR 18 MO (STUDY DURATION: 18 MO)", "value": "inactive; negative"}, {"measurement": "carcinogen call", "setting": "Species: MOUSE, Strain/Sex: SWISS-WEBSTER/MALE, Route: DERMAL, Dose: 0, 1% IN 0.1 ML DISTILLED WATER 1/WK FOR 18 MO (STUDY DURATION: 18 MO)", "value": "inactive; negative"}]}
{"smiles": "O=C(O)CCC(=O)O", "values": [{"measurement": "carcinogen call", "setting": "Species: RAT, Strain/Sex: F344/FEMALE, Route: ORAL, Dose: 0, 1, 2% IN DRINKING WATER FOR 2 YR (STUDY DURATION: 2 YR), Dose: 0, 1, 2% IN DRINKING WATER FOR 2 YR (STUDY DURATION: 2 YR)", "value": "inactive; negative"}, {"measurement": "carcinogen call", "setting": "Species: RAT, Strain/Sex: F344/MALE, Route: ORAL, Dose: 0, 1, 2% IN DRINKING WATER FOR 2 YR (STUDY DURATION: 2 YR), Dose: 0, 1, 2% IN DRINKING WATER FOR 2 YR (STUDY DURATION: 2 YR)", "value": "inactive; negative"}]}
{"smiles": "COc1ccc(C(c2ccc(OC)cc2)C(Cl)(Cl)Cl)cc1", "values": [{"measurement": "carcinogen call", "setting": "Species: MOUSE, Strain/Sex: B6C3F1/FEMALE, Route: ORAL, Dose: 0, 997, 1994 PPM IN DIET, TWA, Dose: 0, 997, 1994 PPM IN DIET, TWA", "value": "inactive; negative"}, {"measurement": "carcinogen call", "setting": "Species: MOUSE, Strain/Sex: B6C3F1/MALE, Route: ORAL, Dose: 0, 1746, 3491 PPM IN DIET, TWA, Dose: 0, 1746, 3491 PPM IN DIET, TWA", "value": "inactive; negative"}, {"measurement": "carcinogen call", "setting": "Species: MOUSE, Strain/Sex: BALB/MALE, Route: ORAL, Dose: 750 PPM IN DIET, Tumor Site: Type of Lesion: TESTES: INTERSTITIAL CELL CARCINOMA", "value": "active; positive"}, {"measurement": "carcinogen call", "setting": "Species: RAT, Strain/Sex: OSBORNE-MENDEL/FEMALE, Route: ORAL, Dose: 0, 750, 1385 PPM IN DIET, TWA, Dose: 0, 750, 1385 PPM IN DIET, TWA", "value": "inactive; negative"}, {"measurement": "carcinogen call", "setting": "Species: RAT, Strain/Sex: OSBORNE-MENDEL/MALE, Route: ORAL, Dose: 0, 448, 845 PPM IN DIET, TWA, Dose: 0, 448, 845 PPM IN DIET, TWA", "value": "inactive; negative"}]}
{"smiles": "Nc1cc2c3c(ccc2c2ccccc12)[C@H](O)[C@@H](O)C=C3", "values": [{"measurement": "carcinogen call", "setting": "Species: MOUSE, Strain/Sex: SWISS/FEMALE, Route: INTRAPERITONEAL, Dose: 0, 100 NMOL (TOTAL DOSE) 1/7, 2/7 AND 4/7 ADMINISTERED ON DAYS 1, 8 AND 15 OF LIFE RESPECTIVELY (STUDY DURATION: 32 WK), Tumor Site: Type of Lesion: LUNG: TUMOR", "value": "active; positive"}, {"measurement": "carcinogen call", "setting": "Species: MOUSE, Strain/Sex: SWISS/MALE, Route: INTRAPERITONEAL, Dose: 0, 100 NMOL (TOTAL DOSE) 1/7, 2/7 AND 4/7 ADMINISTERED ON DAYS 1, 8 AND 15 OF LIFE RESPECTIVELY (STUDY DURATION: 32 WK), Tumor Site: Type of Lesion: LUNG: TUMOR, LIVER: TUMOR", "value": "active; positive"}]}
{"smiles": "O=C(O)c1cc2ccccc2c(N=Nc2ccccc2)c1O", "values": [{"measurement": "carcinogen call", "setting": "Species: MOUSE, Strain/Sex: ICR/FEMALE, Route: DERMAL, Dose: 0, 1 MG IN 0.1 ML DISTILLED WATER 2/WK FOR A MEAN TOTAL DOSE OF 122.2 MG (STUDY DURATION: 18 MO)", "value": "inactive; negative"}, {"measurement": "carcinogen call", "setting": "Species: MOUSE, Strain/Sex: ICR/MALE, Route: DERMAL, Dose: 0, 1 MG IN 0.1 ML DISTILLED WATER 2/WK FOR A MEAN TOTAL DOSE OF 122.2 MG (STUDY DURATION: 18 MO)", "value": "inactive; negative"}]}
{"smiles": "CC(C)=CCC/C(C)=C/C=C/C(C)=C/C=C/C(C)=C/C=C/C=C(C)/C=C/C=C(C)/C=C/C=C(\\C)CCC=C(C)C", "values": [{"measurement": "carcinogen call", "setting": "Species: MOUSE, Strain/Sex: C57BL/6J/MALE, Route: ORAL, Dose: 0, 50, 200 PPM IN DRINKING WATER FOR 80 WK (STUDY DURATION: 80 WK), Dose: 0, 50, 200 PPM IN DRINKING WATER FOR 80 WK (STUDY DURATION: 80 WK)", "value": "inactive; negative"}]}
{"smiles": "CCC(C)Br", "note": "(stereo unspecified)", "values": [{"measurement": "carcinogen call", "setting": "Species: MOUSE, Route: INTRAPERITONEAL, Tumor Site: Type of Lesion: LUNG", "value": "active; positive"}]}
{"smiles": "CO[Si](CCC1CCC2OC2C1)(OC)OC", "note": "(stereo unspecified)", "values": [{"measurement": "carcinogen call", "setting": "Species: MOUSE, Strain/Sex: C3H/MALE, Route: DERMAL, Dose: 0, 25 MG IN ACETONE 3/WK FOR DURATION OF STUDY (STUDY DURATION: LIFETIME), Tumor Site: Type of Lesion: SKIN: CARCINOMA", "value": "active; positive"}]}
{"smiles": "COP(=O)(NC(C)=O)SC", "note": "(stereo unspecified)", "values": [{"measurement": "carcinogen call", "setting": "Species: Mouse, Strain/Sex: CD-1/Female, Route: Oral, Dose: 0, 50, 250, 1000 ppm (0; 8; 42; 167 mg/kg/d) in feed for 104 wk, Dose: 0, 50, 250, 1000 ppm (0; 8; 42; 167 mg/kg/d) in feed for 104 wk, Tumor Site: Type of Lesion: Liver: Hepatocellular carcinoma and adenoma (highest dose only)", "value": "inactive; negative; purity = 92.7, 92.1%"}, {"measurement": "carcinogen call", "setting": "Species: Mouse, Strain/Sex: CD-1/Male, Route: Oral, Dose: 0, 50, 250, 1000 ppm (0; 7; 36; 146 mg/kg/d) in feed for 104 wk, Dose: 0, 50, 250, 1000 ppm (0; 7; 36; 146 mg/kg/d) in feed for 104 wk", "value": "inactive; negative; purity = 92.7, 92.1%"}]}
{"smiles": "Cc1ccc(N=Nc2c(O)c(C(=O)O)cc3ccccc23)c(S(=O)(=O)O)c1", "values": [{"measurement": "carcinogen call", "setting": "Species: MOUSE, Strain/Sex: ICR/FEMALE, Route: DERMAL, Dose: 0, 1 MG IN 0.1 ML DISTILLED WATER 2/WK FOR A MEAN TOTAL DOSE OF 130.6 MG (STUDY DURATION: 18 MO)", "value": "inactive; negative"}, {"measurement": "carcinogen call", "setting": "Species: MOUSE, Strain/Sex: ICR/MALE, Route: DERMAL, Dose: 0, 1 MG IN 0.1 ML DISTILLED WATER 2/WK FOR A MEAN TOTAL DOSE OF 130.6 MG (STUDY DURATION: 18 MO)", "value": "inactive; negative"}]}
